“And” between values parts separate entries of the source, which are not always exact repeats. Identical values can stand only once. Inconclusive results and toxic doses are left out. How the source made its calls: active means survival T/C of 150% or more; inactive means T/C below 125% in these data.
Tested on: P388 leukemia ip, CD2F1 mice, survival T/C
Assay: NCI In Vivo Anticancer Drug Screen. Data for tumor model P388 Leukemia (intraperitoneal) in CD2F1 (CDF1) mice
Details: endpoint: median survival time, higher = longer survival
Procedure, shortened: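 Mice carrying the transplanted tumor received test compound or vehicle. Survival was recorded in each group, and the value is the treated-group measurement divided by that of the vehicle-treated control group.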

[1] = dose: 50.0 mg/kg/injection, schedule: Q01DX009 (ip), vehicle: Klucel (hydroxypropylcellulose) (HPC)
[2] = dose: 100.0 mg/kg/injection, schedule: Q01DX009 (ip), vehicle: Klucel (hydroxypropylcellulose) (HPC)
[3] = dose: 200.0 mg/kg/injection, schedule: Q01DX009 (ip), vehicle: Klucel (hydroxypropylcellulose) (HPC)
[4] = dose: 50.0 mg/kg/injection, schedule: Q01DX005 (ip), vehicle: Klucel (hydroxypropylcellulose) (HPC)
[5] = dose: 100.0 mg/kg/injection, schedule: Q01DX005 (ip), vehicle: Klucel (hydroxypropylcellulose) (HPC)
[6] = dose: 200.0 mg/kg/injection, schedule: Q01DX005 (ip), vehicle: Klucel (hydroxypropylcellulose) (HPC)
[7] = dose: 15.0 mg/kg/injection, schedule: Q01DX005 (ip), vehicle: saline with Tween-80
[8] = dose: 30.0 mg/kg/injection, schedule: Q01DX005 (ip), vehicle: saline with Tween-80
[9] = dose: 60.0 mg/kg/injection, schedule: Q01DX005 (ip), vehicle: Klucel (hydroxypropylcellulose) (HPC)
[10] = dose: 60.0 mg/kg/injection, schedule: Q01DX005 (ip), vehicle: saline with Tween-80
[11] = dose: 120.0 mg/kg/injection, schedule: Q01DX005 (ip), vehicle: Klucel (hydroxypropylcellulose) (HPC)
[12] = dose: 120.0 mg/kg/injection, schedule: Q01DX005 (ip), vehicle: saline with Tween-80
[13] = dose: 50.0 mg/kg/injection, schedule: Q01DX005 (ip), vehicle: saline with Tween-80
[14] = dose: 6.25 mg/kg/injection, schedule: Q01DX009 (ip), vehicle: water
[15] = dose: 12.5 mg/kg/injection, schedule: Q01DX009 (ip), vehicle: water
[16] = dose: 25.0 mg/kg/injection, schedule: Q01DX009 (ip), vehicle: water
[17] = dose: 100.0 mg/kg/injection, schedule: Q01DX009 (ip), vehicle: water

Measured: T/C

COc1cccc2c1N(COC(C)=O)C(=O)C1C=CC(C)(C)OC21 (stereo not drawn)
inactive: dose: 8.0 mg/kg/injection, schedule: Q01DX009 (ip), vehicle: Klucel (hydroxypropylcellulose) (HPC) 97 % of control | dose: 16.0 mg/kg/injection, schedule: Q01DX009 (ip), vehicle: Klucel (hydroxypropylcellulose) (HPC) 95 % of control | dose: 32.0 mg/kg/injection, schedule: Q01DX009 (ip), vehicle: Klucel (hydroxypropylcellulose) (HPC) 97 % of control | dose: 64.0 mg/kg/injection, schedule: Q01DX009 (ip), vehicle: Klucel (hydroxypropylcellulose) (HPC) 92 % of control

[Cl][Pt+2][Cl].[NH-]c1ccc2[nH]c(=S)sc2c1.[NH-]c1ccc2[nH]c(=S)sc2c1
inactive: dose: 100.0 mg/kg/injection, schedule: Q01DX001 (sc), vehicle: olive oil, sesame oil, peanut oil 104 % of control | dose: 200.0 mg/kg/injection, schedule: Q01DX001 (sc), vehicle: olive oil, sesame oil, peanut oil 114 % of control | dose: 400.0 mg/kg/injection, schedule: Q01DX001 (sc), vehicle: olive oil, sesame oil, peanut oil 104 % of control

O=C(Nc1ccccc1)ON=C(c1ccccc1)c1ccccc1
inactive: dose: 100.0 mg/kg/injection, schedule: Q01DX001 (ip), vehicle: saline with Tween-80 97 % of control | dose: 200.0 mg/kg/injection, schedule: Q01DX001 (ip), vehicle: saline with Tween-80 93 % of control | dose: 400.0 mg/kg/injection, schedule: Q01DX001 (ip), vehicle: saline with Tween-80 112 % of control

CC1(C)N2c3ccc(Cl)cc3C(c3ccccc3)N1c1ccc(Cl)cc1C2c1ccccc1 (stereo not drawn)
inactive: [1] 98 % of control | [2] 95 % of control | [3] 95 % of control

ONC1=Nc2ccccc2OCCOc2ccccc2N=C1NO
inactive: [4] 100 % of control | [5] 100 % of control | [6] 96 % of control

Nc1ccc(S(=O)(=O)Nc2c(N)[nH]c(=S)[nH]c2=O)cc1
inactive: dose: 15.0 mg/kg/injection, schedule: Q01DX005 (ip), vehicle: Klucel (hydroxypropylcellulose) (HPC) 97 % of control | [7] 115 % of control | dose: 30.0 mg/kg/injection, schedule: Q01DX005 (ip), vehicle: Klucel (hydroxypropylcellulose) (HPC) 97 % of control | [8] 105 % of control | [9] 92 % of control | [10] 98 % of control | [11] 100 % of control | [12] 100 % of control

CCOC(=O)C(CC/C=C(\C)CC/C=C/COC(=O)N(C(C)C)C(C)C)P(=O)(OCC)OCC (stereo not drawn)
inactive: [13] 109 % of control | dose: 100.0 mg/kg/injection, schedule: Q01DX005 (ip), vehicle: saline with Tween-80 106 % of control | dose: 200.0 mg/kg/injection, schedule: Q01DX005 (ip), vehicle: saline with Tween-80 109 % of control

CC(C)SC(=S)Nc1cccc(F)c1
inactive: dose: 50.0 mg/kg/injection, schedule: Q01DX009 (ip), vehicle: suspension in saline 107 % of control | dose: 100.0 mg/kg/injection, schedule: Q01DX009 (ip), vehicle: suspension in saline 109 % of control | dose: 200.0 mg/kg/injection, schedule: Q01DX009 (ip), vehicle: suspension in saline 107 % of control

Cc1ncc([N+](=O)[O-])n1Cc1nncs1
inactive: [1] 108 % of control | [2] 107 % of control | [3] 104 % of control

Oc1c(CN2CCCC2)cc(Nc2nccc(/C=C/c3ccc(Cl)cc3)n2)cc1CN1CCCC1
inactive: dose: 6.25 mg/kg/injection, schedule: Q01DX009 (ip), vehicle: saline 106 % of control | dose: 12.5 mg/kg/injection, schedule: Q01DX009 (ip), vehicle: saline 106 % of control | dose: 25.0 mg/kg/injection, schedule: Q01DX009 (ip), vehicle: saline 110 % of control | dose: 50.0 mg/kg/injection, schedule: Q01DX009 (ip), vehicle: saline 114 % of control

COc1ccc(C2=NCCc3cc(OC)c(OC)cc32)cc1OC
inactive: [14] 111 % of control | [15] 108 % of control | [16] 118 % of control | dose: 50.0 mg/kg/injection, schedule: Q01DX009 (ip), vehicle: water 105 % of control | [17] 111 % of control

CCOC(=O)c1c(C)c(C(=O)OCC)n(CC)c1C=O
inactive: dose: 50.0 mg/kg/injection, schedule: Q01DX009 (ip), vehicle: saline with Tween-80 96 % of control | dose: 100.0 mg/kg/injection, schedule: Q01DX009 (ip), vehicle: saline with Tween-80 98 % of control | dose: 200.0 mg/kg/injection, schedule: Q01DX009 (ip), vehicle: saline with Tween-80 98 % of control

COc1cc2ccc3c[n+](C)ccc3c2cc1OC
inactive: [14] 101 % of control and 103 % of control | dose: 12.5 mg/kg/injection, schedule: Q01DX009 (ip), vehicle: other 107 % of control | [15] 114 % of control | dose: 25.0 mg/kg/injection, schedule: Q01DX009 (ip), vehicle: other 119 % of control | [16] 116 % of control and 122 % of control | [17] 108 % of control

O=P1(NC23CC4CC(CC(C4)C2)C3)OC(CCl)=NC1c1ccc(C2N=C(CCl)OP2(=O)NC23CC4CC(CC(C4)C2)C3)cc1 (stereo not drawn)
inactive: [10] 98 % of control | [12] 98 % of control | dose: 240.0 mg/kg/injection, schedule: Q01DX005 (ip), vehicle: saline with Tween-80 98 % of control

OCC(CCc1c[nH]c2ccccc12)c1c[nH]c2ccccc12 (stereo not drawn)
inactive: [9] 90 % of control | [11] 90 % of control | dose: 240.0 mg/kg/injection, schedule: Q01DX005 (ip), vehicle: Klucel (hydroxypropylcellulose) (HPC) 93 % of control

COc1ccc(NC(=O)C2C(=O)N(c3ccc(OC)cc3)C(=O)/C2=N/NC(N)=S)cc1 (stereo not drawn)
inactive: dose: 12.5 mg/kg/injection, schedule: Q01DX005 (ip), vehicle: saline with Tween-80 101 % of control | dose: 25.0 mg/kg/injection, schedule: Q01DX005 (ip), vehicle: saline with Tween-80 100 % of control | [13] 100 % of control and 90 % of control

[Br][Sn]([CH2]CC[CH2][Sn]([Br])([c]1ccccc1)[c]1ccccc1)([c]1ccccc1)[c]1ccccc1
inactive: [4] 93 % of control | [5] 100 % of control

O=c1oc2c(ccc3c(O)cccc32)c2c1CCCC2
inactive: [4] 105 % of control | [5] 102 % of control | [6] 93 % of control

O=C(Nc1cc(Cl)c(Cl)cc1Cl)OCc1ccc2c(c1)OCO2
inactive: [7] 100 % of control | [8] 94 % of control | [10] 89 % of control and 91 % of control

From PubChem BioAssay AID330 (DTP/NCI, 2004)
